Data as given in PMC10388363, “Novel 1,4-Dihydropyridines as Specific Binders and Activators of SIRT3 Impair Cell Viability and Clonogenicity and Downregulate Hypoxia-Induced Targets in Cancer Cells” (Journal of Medicinal Chemistry, 2023).

Legend:
[1] = target: T1, human SIRT2 (Homo sapiens, UniProt Q8IXJ6); test: PncA/GDH-coupled deacylation assay, SIRT2 activation (α-tubulin-acK25 substrate); format: biochemical; details: for effect on SIRT2: 10 μM compound; for SIRT2 activation: 100 μM compound
T1 construct: Sirt2-43-356 was expressed from a modified pET19b; SUMO-tag (with TEV protease cleavage site) (N, cleaved yes); His tag (N, cleaved yes); made in house; host or cells: Escherichia coli
T1 sequence (Q8IXJ6 43-356): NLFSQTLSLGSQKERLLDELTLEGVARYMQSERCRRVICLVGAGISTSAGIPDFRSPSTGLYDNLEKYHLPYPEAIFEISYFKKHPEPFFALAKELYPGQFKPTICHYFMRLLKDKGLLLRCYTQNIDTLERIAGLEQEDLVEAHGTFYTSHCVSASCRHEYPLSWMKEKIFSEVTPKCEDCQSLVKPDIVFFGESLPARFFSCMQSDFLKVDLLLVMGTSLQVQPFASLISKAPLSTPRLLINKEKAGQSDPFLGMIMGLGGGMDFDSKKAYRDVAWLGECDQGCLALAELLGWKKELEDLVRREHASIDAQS
Experimental: (§1) To avoid artifacts and other non-specific effects, instead of the “Fluor-de-Lys” (FdL) substrate, we used a PncA/GDH-coupled deacylation assay by measuring the NADPH oxidation to NADP^+ that relies on isoform-specific non-modified physiological acetyl or succinyl substrates [p53-acK381 for SIRT1, α-tubulin-[…] for SIRT2, acetyl-CoA synthetase 2 (ACS2)-acK642 for SIRT3, and CPS1-succK537 for SIRT5].[59] The assays were carried out using the 1,4-DHP derivatives 2a–n and 3a–d against SIRT3, including the prototype compounds 2 and 3 as positive controls.
(§2) N-terminally his-tagged human sirtuins were expressed in Escherichia coli using constructs in pET15b (Sirt1) or pET151D/Topo (Sirt3-114-380 and Sirt5-34-302).[4],[59],[61] Sirt2-43-356 was expressed from a modified pET19b containing a TEV protease cleavage site and an N-terminal SUMO-tag.[59],[79] Proteins were expressed and purified as described elsewhere.[59],[61],[79]−[81] In brief, proteins were expressed in E. coli, crude extracts were cleared by centrifugation, and the proteins were affinity purified using NiNTA beads.
(§3) Sirtuin deacylation activities were analyzed by using a coupled enzymatic assay as described in.[59],[82] For initial modulation screenings, substrate peptide specificity analysis, and compound titrations, 1.5 μM sirtuin was incubated with 50 μM substrate peptide and 100 μM NAD^+ in absence or presence of 10 μM, 100 μM or the indicated concentration of 1,4-DHP at a final DMSO concentration of 5%. For kinetic experiments, 1.5 μM sirtuin was incubated with saturating concentrations of either substrate peptide (0.4 mM) or NAD^+ (2 mM), with the second substrate’s concentration being varied in absence or presence of 200 μM 1,4-DHP at a final concentration of 5% DMSO. Potential 1,4-DHP effects on the coupled enzymes GDH and nicotinamidase were tested in control assays containing 50 μM NAM instead of the substrate peptide.

[2] = test system: GDH activity in MDA-MB-231 cells; test: GDH activity assay in lysates of treated MDA-MB-231 cells; format: cell-based, human; details: 50 μM, 4 h
Experimental: Selected compounds 3a–d were tested in triple-negative breast cancer MDA-MB-231 cells to evaluate their effects on SIRT3 physiological substrates. First, the effect on the activity of GDH (an established SIRT3 substrate activated through deacetylation[60]−[62]) was investigated by a coupled enzyme assay. […] These effects of SIRT3 activators clearly phenocopied those observed in the SIRT3-overexpressing MDA-MB-231 cells (SIRT3^+) (Figure 6).
GDH activity in cells treated or not with the SIRT3 activators 3a–d and the reference compounds 2 and 3 was measured using a GDH activity assay kit (MAK099, Merck) following the manufacturer’s instructions. Briefly, 10^6 cells were lysed in 40 μL of GDH assay buffer and kept for 10 min in ice. Afterward, lysates were centrifuged to collect supernatants. Ten microliters of supernatant were added to 40 μL of GDH buffer and 100 μL of a mix containing GDH assay buffer, developer, and glutamate. The whole mix was transferred into a 96-well plate and incubated at 37 °C for 3 min. Finally, absorbance was read at 450 nm using a GloMax multi detection system (Promega, Milan, Italy). The absorbance of the assay buffer was subtracted from each experimental sample.

[3] = target: T2, human SIRT5 (Homo sapiens, UniProt Q9NXA8); test: PncA/GDH-coupled deacylation assay, SIRT5 activation (CPS1-succK537 substrate); format: biochemical; details: for effect on SIRT5: 10 μM compound; for SIRT5 activation: 100 μM compound
T2 construct: pET151D/Topo (Sirt3-114-380 and Sirt5-34-302); His tag (N, cleaved yes); made in house; host or cells: Escherichia coli
T2 sequence (Q9NXA8 34-302): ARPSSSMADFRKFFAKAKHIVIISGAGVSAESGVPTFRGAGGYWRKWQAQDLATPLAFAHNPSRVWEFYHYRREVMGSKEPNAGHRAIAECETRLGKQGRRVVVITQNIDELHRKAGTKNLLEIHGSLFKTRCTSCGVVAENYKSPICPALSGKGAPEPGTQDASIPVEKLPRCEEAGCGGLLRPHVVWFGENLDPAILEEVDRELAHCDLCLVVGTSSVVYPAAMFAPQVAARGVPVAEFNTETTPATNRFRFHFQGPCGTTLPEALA
Experimental: as §1, §2, §3

Row | effect on SIRT2 [1] | SIRT2 activation [1] [%] | effect on SIRT5 [3] | SIRT5 activation [3] [%] | SMILES | effect on GDH activity in cell lysates [2] | GDH activation [2]
1 | negligible effects | 130 | negligible effects | 144 | CCOC(=O)C1=CN(C(=O)c2cccc(OC)c2)C=C(C(=O)OCC)C1c1ccccc1 [Compound 3a, Diethyl 1-(3-methoxybenzoyl)-4-phenyl-1,4-dihydropyridine-3,5-dicarboxylate] | increase in GDH activity | –
2 | negligible effects | 136 | negligible effects | 160 | CCOC(=O)C1=CN(C(=O)c2ccc(OC)c(OC)c2)C=C(C(=O)OCC)C1c1ccccc1 [Compound 3c, Diethyl 1-(3,4-dimethoxybenzoyl)-4-phenyl-1,4-dihydropyridine-3,5-dicarboxylate] | increase in GDH activity | –

Row | SMILES | effect on SIRT2 [1] | SIRT2 activation [1] [%] | effect on SIRT5 [3] | SIRT5 activation [3] [%] | effect on GDH activity in cell lysates [2] | GDH activation [2]
3 | CCOC(=O)C1=CN(C(=O)c2cc(OC)cc(OC)c2)C=C(C(=O)OCC)C1c1ccccc1 [Compound 3d, Diethyl 1-(3,5-dimethoxybenzoyl)-4-phenyl-1,4-dihydropyridine-3,5-dicarboxylate] | negligible effects | – | negligible effects | – | increase in GDH activity | around 175%
